In US9115143B2, “Substituted indole derivatives as gamma secretase modulators” (Janssen Pharmaceuticals, Inc., priority 2011, dated 2015):

Columns and labels:
[1] = tested on: Aβtotal; assay: Screening for γ-secretase-modulating activity: Aβtotal in supernatant of SKNBE2 cells carrying hAPP 695 wild type (Alphalisa); format: cell-based, human; conditions: overnight incubation, Alphalisa on supernatant
In short: (§1)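 SKNBE2 human neuroblastoma cells expressing wild-type hAPP 695 (10^4/well) were incubated overnight at 37 °C, 5% CO2 with compound at several concentrations. Supernatant Aβ42 and Aβtotal measured by AlphaLISA sandwich immunoassays; IC50 from 4-parameter fit of percent of untreated control versus log concentration.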

[2] = tested on: Aβ38; assay: In vivo efficacy B-2a: brain soluble Aβ38 in non-transgenic rodents, ELISA; parameters: species or system mouse; conditions: dose 30 mg/kg oral dosing, brain soluble fraction, untreated animals (Ctrl) set at 100; for response vs control in vivo at 30 mg/kg: Mus musculus, po, read-out: Aβ38 (% vs Ctrl)_Mean
Text: Aβ38 increasing agents can be administered in any standard form using any standard method. For example, but not limited to, Aβ38 increasing agents can be in the form of liquid, tablets or capsules that are taken orally or by injection.
To determine whether acute administration of an Aβ38 increasing agents would increase Aβ38 levels in vivo, non-transgenic rodents, e.g. mice or rats were used. Animals treated with the Aβ38 increasing agents were examined and compared to those untreated or treated with vehicle and brain levels of soluble Aβ38 and total Aβ were quantitated by standard techniques, for example, using ELISA. Treatment periods varied from hours (h) to days and were adjusted based on the results of the Aβ38 increase once a time course of onset of effect could be established.
A typical protocol for measuring Aβ38 increase in vivo is shown but it is only one of many variations that could be used to optimize the levels of detectable Aβ. For example, Aβ38 increasing agents were formulated in 20% of Captisol® (a sulfobutyl ether of β-cyclodextrin) in water or 20% hydroxypropyl β cyclodextrin. The Aβ38 increasing agents were administered as a single oral dose or by any acceptable route of administration to overnight fasted animals. After 4 h, the animals were sacrificed and Aβ38 levels were analysed.
Blood was collected by decapitation and exsanguinations in EDTA-treated collection tubes. Blood was centrifuged at 1900 g for 10 minutes (min) at 4° C. and the plasma recovered and flash frozen for later analysis. The brain was removed from the cranium and hindbrain. The cerebellum was removed and the left and right hemisphere were separated. The left hemisphere was stored at −18° C. for quantitative analysis of test compound levels. The right hemisphere was rinsed with phosphate-buffered saline (PBS) buffer and immediately frozen on dry ice and stored at −80° C. until homogenization for biochemical assays.
Mouse brains from non-transgenic animals were resuspended in 8 volumes of 0.4% DEA (diethylamine)/50 mM NaCl containing protease inhibitors (Roche-11873580001 or 04693159001) per gram of tissue, e.g. for 0.158 g brain, add 1.264 mL of 0.4% DEA. All samples were homogenized in the FastPrep-24 system (MP Biomedicals) using lysing matrix D (MPBio #6913-100) at 6 m/s for 20 seconds. Homogenates were centrifuged at 20800×g for 5 min and supernatants collected. Supernatants were centrifuged at 221.300×g for 50 min. The resulting high speed supernatants were then transferred to fresh eppendorf tubes. Nine parts of supernatant were neutralized with 1 part 0.5 M Tris-HCl pH 6.8 and used to quantify Aβtotal and Aβ38.
To quantify the amount of Aβtotal and Aβ38 in the soluble fraction of the brain homogenates, Enzyme-Linked-Immunosorbent-Assays were used. Briefly, the standards (a dilution of synthetic Aβ1-40 and Aβ1-38, ANASPEC) were prepared in 1.5 mL Eppendorf tube in Ultraculture, with final concentrations ranging from 10000 to 0.3 pg/mL. The samples and standards were co-incubated with HRPO-labelled N-terminal antibody for Aβ38 detection and with the biotinylated mid-domain antibody 4G8 for Aβtotal detection. 50 μl of conjugate/sample or conjugate/standards mixtures were then added to the antibody-coated plate (the capture antibodies selectively recognize the C-terminal end of Aβ38, antibody J&JPRD/Aβ38/5, for Aβ38 detection and the N-terminus of Aβ, antibody JRF/rAβ/2, for Aβtotal detection). The plate was allowed to incubate overnight at 4° C. in order to allow formation of the antibody-amyloid complex. Following this incubation and subsequent wash steps the ELISA for Aβ38 quantification was finished by addition of Quanta Blu fluorogenic peroxidase substrate according to the manufacturer's instructions (Pierce Corp., Rockford, Ill.). A reading was performed after 10 to 15 min (excitation 320 nm/emission 420 nm). […]

[3] = tested on: Aβ42; assay: Screening for γ-secretase-modulating activity: Aβ42 in supernatant of SKNBE2 cells carrying hAPP 695 wild type (Alphalisa); format: cell-based, human; conditions: overnight incubation, Alphalisa on supernatant
In short: as §1

[4] = Homo sapiens, SKNBE2, SKNBE2 human neuroblastoma cells carrying hAPP 695 wild type
[5] = SKNBE2 human neuroblastoma cells carrying hAPP 695 wild type

IC50 [1, 4] [nM] | IC50 [3, 4] [nM] | IC50 [1, 5] [nM] | IC50 [3, 5] [nM] | Structure (SMILES) | response vs control in vivo at 30 mg/kg [2] [%] | Aβ38 (% vs Ctrl)_Mean ([2]; 30 mg/kg) [% vs Ctrl] | Aβ38 (% vs Ctrl)_Mean [2] [% vs Ctrl]
> 10000 | 112 |  |  | COc1c(C#N)ccc2[nH]c(-c3cn4c(n3)C(c3ccc(F)cc3C)CCC4)cc12 (stereo not drawn) [Compound 74, 2-[8-(4-fluoro-2-methylphenyl)-5,6,7,8-tetrahydroimidazo[1,2-a]pyridin-2-yl]-4-methoxy-1H-indole-5-carbonitrile] | 117 |  | 
> 10000 | 78 |  |  | Cc1cc(F)ccc1C1OCCn2cc(-c3cc4cc(-c5cnn(C)c5)ccc4[nH]3)nc21 (stereo not drawn) [Compound 99, 8-(4-fluoro-2-methylphenyl)-5,6-dihydro-2-[5-(1-methyl-1H-pyrazol-4-yl)-1H-indol-2-yl]-8H-imidazo[2,1-c][1,4]oxazine] | 96 |  | 
> 10000 | 74 |  |  | COc1c(-c2cnn(C)c2)ccc2[nH]c(-c3cn4c(n3)C(c3ccc(F)cc3C)OCC4)cc12 (stereo not drawn) [Compound 96, 8-(4-fluoro-2-methylphenyl)-5,6-dihydro-2-[4-methoxy-5-(1-methyl-1H-pyrazol-4-yl)-1H-indol-2-yl]-8H-imidazo[2,1-c][1,4]oxazine] | 124 |  | 
 |  | > 10000 | 89 | Cc1cn(-c2ccc3[nH]c(-c4nc5n(n4)CCCC5c4ccc(F)cc4C)nc3c2)cn1 (stereo not drawn) [Compound 176, 8-(4-fluoro-2-methylphenyl)-5,6,7,8-tetrahydro-2-[5-(4-methyl-1H-imidazol-1-yl)-1H-benzimidazol-2-yl]-[1,2,4]triazolo[1,5-a]pyridine] | 93 |  | 
> 10000 |  |  | 93 | COc1c(C#N)ccc2[nH]c(-c3nc4n(n3)CCOC4c3ccc(F)cc3C)cc12 (stereo not drawn) [Compound 111, 2-[8-(4-fluoro-2-methylphenyl)-5,6-dihydro-8H-[1,2,4]triazolo[5,1-c][1,4]oxazin-2-yl]-4-methoxy-1H-indole-5-carbonitrile] | 107 |  | 
 |  | > 10000 | 24 | Cc1cn(-c2ccc3[nH]c(-c4nc5n(n4)CCCC5c4ccc(F)cc4C)cc3c2)cn1 (single isomer, unassigned) [Compound 77, 8-(4-fluoro-2-methylphenyl)-5,6,7,8-tetrahydro-2-[5-(4-methyl-1H-imidazol-1-yl)-1H-indol-2-yl]-[1,2,4]triazolo[1,5-a]pyridine] | 168 |  | 
> 10000 |  |  | 37 | COc1c(C#N)ccc2[nH]c(-c3nc4n(n3)CCOC4c3c(F)cccc3Cl)cc12 (single isomer, unassigned) [Compound 117, 2-[8-(2-chloro-6-fluorophenyl)-5,6-dihydro-8H-[1,2,4]triazolo[5,1-c][1,4]oxazin-2-yl]-4-methoxy-1H-indole-5-carbonitrile] | 106 |  | 
 |  | > 10000 | 89 | Cc1cc(F)ccc1C1OCCn2cc(-c3cc4nc(-c5cnn(C)c5)ccc4[nH]3)nc21 (single isomer, unassigned) [Compound 102, 8-(4-fluoro-2-methylphenyl)-5,6-dihydro-2-[5-(1-methyl-1H-pyrazol-4-yl)-1H-pyrrolo[3,2-b]pyridin-2-yl]-8H-imidazo[2,1-c][1,4]oxazine] | 82 |  | 

Further lines, the compound ahead of its results:

Structure (SMILES) | IC50 [1, 4] [nM] | IC50 [3, 4] [nM] | IC50 [1, 5] [nM] | IC50 [3, 5] [nM] | response vs control in vivo at 30 mg/kg [2] [%] | Aβ38 (% vs Ctrl)_Mean ([2]; 30 mg/kg) [% vs Ctrl] | Aβ38 (% vs Ctrl)_Mean [2] [% vs Ctrl]
Cc1cc(F)ccc1C1CCCn2nc(-c3cc4nc(-c5cnn(C)c5)ccc4[nH]3)nc21 (stereo not drawn) [Compound 69, 8-(4-fluoro-2-methylphenyl)-5,6,7,8-tetrahydro-2-[5-(1-methyl-1H-pyrazol-4-yl)-1H-pyrrolo[3,2-b]pyridin-2-yl]-[1,2,4]triazolo[1,5-a]pyridine] |  |  | > 10000 | 117 | 106 |  | 
Cc1cc(F)ccc1C1CCCn2cc(-c3cc4cc(C#N)ccc4[nH]3)nc21 (stereo not drawn) [Compound 63, 2-[8-(4-fluoro-2-methylphenyl)-5,6,7,8-tetrahydroimidazo[1,2-a]pyridin-2-yl]-1H-indole-5-carbonitrile] |  |  | > 10000 | 4470 |  | 98 | 
Cc1cn(-c2ccc3[nH]c(-c4nc5n(n4)CCCC5c4ccc(F)cc4C)cc3c2)cn1 (stereo not drawn) [Compound 73, 8-(4-fluoro-2-methylphenyl)-5,6,7,8-tetrahydro-2-[5-(4-methyl-1H-imidazol-1-yl)-1H-indol-2-yl]-[1,2,4]triazolo[1,5-a]pyridine] | > 10000 | 43 |  |  | 120 |  | 
Cc1ccccc1C1CCCn2nc(-c3cc4cc(C#N)ccc4[nH]3)nc21 (stereo not drawn) [Compound 13, 2-[5,6,7,8-tetrahydro-8-(2-methylphenyl)[1,2,4]triazolo[1,5-a]pyridin-2-yl]-1H-indole-5-carbonitrile] |  |  | > 10000 | 72 | 116 |  | 
Cc1cn(-c2ccc3[nH]c(-c4nc5n(n4)CCOC5c4ccc(F)cc4C)cc3c2)cn1 (stereo not drawn) [Compound 39, 8-(4-fluoro-2-methylphenyl)-5,6-dihydro-2-[5-(4-methyl-1H-imidazol-1-yl)-1H-indo-2-yl]-8H-[1,2,4]triazolo[5,1-c][1,4]oxazine] |  |  | 214 | 38 |  |  | 132
Cc1cn(-c2cc3cc(-c4nc5n(n4)CCCC5c4ccc(F)cc4C)[nH]c3cn2)cn1 (stereo not drawn) [Compound 71, 8-(4-fluoro-2-methylphenyl)-5,6,7,8-tetrahydro-2-[5-(4-methyl-1H-imidazol-1-yl)-1H-pyrrolo[2,3-c]pyridin-2-yl]-[1,2,4]triazolo[1,5-a]pyridine] | > 10000 | 65 |  |  | 115 |  | 
COc1c(C#N)ccc2[nH]c(-c3nc4n(n3)CCCC4c3ccccc3C(F)(F)F)cc12 (stereo not drawn) [Compound 7, 4-methoxy-2-[5,6,7,8-tetrahydro-8-[2-(trifluoromethyl)phenyl][1,2,4]triazolo[1,5-a]pyridin-2-yl]-1H-indole-5-carbonitrile] | > 10000 | 35 |  |  | 120 |  | 
Cc1cn(-c2ccc3[nH]c(-c4nc5n(n4)CCOC5c4ccccc4C(F)(F)F)cc3c2)cn1 (stereo not drawn) [Compound 37, 5,6-dihydro-2-[5-(4-methyl-1H-imidazol-1-yl)-1H-indol-2-yl]-8-[2-(trifluoromethyl)phenyl]-8H-[1,2,4]triazolo[5,1-c][1,4]oxazine] | 832 | 48 |  |  | 118 |  | 
N#Cc1ccc2[nH]c(-c3cn4c(n3)C(c3ccccc3Cl)CCC4)cc2c1 (stereo not drawn) [Compound 16, 2-[8-(2-chlorophenyl)-5,6,7,8-tetrahydroimidazo[1,2-a]pyridin-2-yl]-1H-indole-5-carbonitrile] | > 10000 | 112 |  |  | 120 |  | 
Cc1cn(-c2cc3cc(-c4nc5n(n4)CCCC5c4ccccc4C)[nH]c3cn2)cn1 (stereo not drawn) [Compound 30, 5,6,7,8-tetrahydro-2-[5-(4-methyl-1H-imidazol-1-yl)-1H-pyrrolo[2,3-c]pyridin-2-yl]-8-(2-methylphenyl)-[1,2,4]triazolo[1,5-a]pyridine] | > 10000 | 52 |  |  | 118 |  | 
